Here are results for three compounds from patent US9936701B2, “Herbicidal compounds” (Syngenta Participations AG, priority 2013, dated 2018).

Data set [1] concerns a variety of test species. In words: Post-emergence herbicidal activity (glasshouse, sprayed after 8 days cultivation, evaluated after 13 days). It is filed as in vivo. Also on record: key: 5=total damage to plant; 0=no damage to plant. Conditions: rate 1000 g/Ha, scale 0-5. The gist of the method:
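Foliar application to 8-day-old plants using a 0.5% Tween 20 acetone/water carrier; phytotoxicity is scored visually from 0 to 5 after 13 days of growth at 24/16 °C day/night.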

The test system of data set [2] is a variety of test species. In words: Pre-emergence herbicidal activity (glasshouse, sprayed one day after sowing, evaluated after 13 days). Conditions: application pre-emergence, rate 1000 g/Ha, scale 0-5. Also on record: key: 5=total damage to plant; 0=no damage to plant. In kind it is in vivo. The gist of the method: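 Seeds sown in standard soil in pots, held one day in glasshouse (24/16 °C day/night, 14 h light, 65% humidity), then sprayed with aqueous solution of compound formulated in acetone/water 50:50 with 0.5% Tween 20. Grown on under same conditions, watered twice daily; damage scored after 13 days (0 = none, 5 = total).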

In the case of `COC1=C(C)C(=O)N(c2noc(C(C)C)c2C#N)C1O` (stereo not drawn) [G4], the melting point was 133 to 135 °C. In addition, in data set [1], the “ABUTH (Abutilon theophrasti) damage score, application post-emergence” value (“ABUTH … application post-emergence” for short) amounted to 5; the “ALOMY (Alopecurus myosuroides) damage score, application post-emergence” value (“ALOMY … application post-emergence” for short) is 5; the “AMARE (Amaranthus retroflexus) damage score, application post-emergence” value (“AMARE … application post-emergence” for short) was found to be 5; the “ECHCG (Echinochloa crus-galli) damage score, application post-emergence” value (“ECHCG … application post-emergence” for short) is on record as 5. Besides, in data set [1], the “SETFA (Setaria faberi) damage score, application post-emergence” value (“SETFA (Setaria faberi) damage score” for short) was determined as 5 and the “ZEAMX (Zea mays) damage score, application post-emergence” value (“ZEAMX (Zea mays) damage score” below) was found to be 4. In data set [2], the “Pre-emergence herbicidal damage score, ABUTH” value is 4; the “Pre-emergence herbicidal damage score, ALOMY” value came out at 3; the “Pre-emergence herbicidal damage score, AMARE” value amounted to 5; the “Pre-emergence herbicidal damage score, ECHCG” value turned out to be 5. Moreover, in data set [2], the “Pre-emergence herbicidal damage score, SETFA” value is listed as 5 and the “Pre-emergence herbicidal damage score, ZEAMX” value stood at 2.
Compound `CCC(C)(C)c1onc(N2C(=O)C(C)=C(OC)C2O)c1C#N` (stereo not drawn) [G5] gave a melting point of 122 to 124 °C. For the same compound, in data set [1], the “ABUTH … application post-emergence” value is listed as 5; the “ALOMY … application post-emergence” value is given as 5; the “AMARE … application post-emergence” value turned out to be 5; the “ECHCG … application post-emergence” value amounted to 5. For the same compound, in data set [1], the “SETFA (Setaria faberi) damage score” value was 5 and the “ZEAMX (Zea mays) damage score” value is given as 3. For the same compound, in data set [2], the “Pre-emergence herbicidal damage score, ABUTH” value is 5; the “Pre-emergence herbicidal damage score, ALOMY” value is on record as 3; the “Pre-emergence herbicidal damage score, AMARE” value is given as 5; the “Pre-emergence herbicidal damage score, ECHCG” value is 5. Besides, in data set [2], the “Pre-emergence herbicidal damage score, SETFA” value is 5 and the “Pre-emergence herbicidal damage score, ZEAMX” value is recorded as 2.
On to `COC1=C(C)C(=O)N(c2cc(C(C)(C)C#N)on2)C1O` (stereo not drawn) [G6], for which the melting point lay in the range of 121 to 123 °C. In data set [1], the “ABUTH … application post-emergence” value is reported as 5; the “ALOMY … application post-emergence” value amounted to 5; the “AMARE … application post-emergence” value was 5; the “ECHCG … application post-emergence” value is on record as 5. Further, in data set [1], the “SETFA (Setaria faberi) damage score” value is 5 and the “ZEAMX (Zea mays) damage score” value came out at 5. For the same compound, in data set [2], the “Pre-emergence herbicidal damage score, ABUTH” value is reported as 5; the “Pre-emergence herbicidal damage score, ALOMY” value was 4; the “Pre-emergence herbicidal damage score, AMARE” value is listed as 5; the “Pre-emergence herbicidal damage score, ECHCG” value is recorded as 4. Besides, in data set [2], the “Pre-emergence herbicidal damage score, SETFA” value is reported as 5 and the “Pre-emergence herbicidal damage score, ZEAMX” value is 4.

In general, melting point refers to the temperature of the solid-liquid transition.
